Paper PMC3338416, “A Chemocentric Approach to the Identification of Cancer Targets” (PLoS ONE, 2012)

Columns and labels:
[1] = test system: HCT116 cell lines; parameters: method as in PMID 21617858; details: read-out: IC50, growth of HCT116 cell lines; cited from earlier work
[2] = test system: MRC-5 cells; test: High-throughput resazurin (Alamar blue) cytotoxicity / antiproliferative assay on normal MRC-5 cells; assay type: cell-based, human; details: dose-response curves (Figure S4)
Procedure: A colon adenocarcinoma (HCT116) and normal human lung fibroblast (MRC-5) cell lines were purchased from the American Type Culture Collection (ATCC, Manassas, VA). HCT116 cells were maintained in McCoy's 5a Modified Medium supplemented with 10% FBS, 100 units/ml penicillin, and 100 µg/ml streptomycin at 37°C in a humidified 5% CO2 incubator. Subculturing was done using 1∶5 ratio twice a week. MRC-5 cells were maintained in DMEM supplemented with 10% FBS, 100 units/ml penicillin, and 100 µg/ml streptomycin at 37°C in a humidified 5% CO2 incubator. Subculturing was done using 1∶3 ratio twice a week. […]
The high-throughput in vitro assay for measuring toxicity and antiproliferative effects of small molecules was implemented as described earlier. Cell lines were grown in culture flasks to 90% confluences, then harvested in counted cell density and seeded into 384-well microtiter plates. […] For the transformation of the assay into a high-throughput format, a Beckman Biomek liquid handling system and a Wallac Victor plate reader were used. […] From the dose-response curves, IC50 values were determined and analyzed. To test the reproducibility and robustness of the assay for high-throughput screening, Z′ factors (∼0.72) and S/B ratios (∼10) were determined and the respective plate-to-plate and day-to-day coefficients of variation found to be 5.0%, 2.7%, 1.7% and 5.6%. […]

[3] = test system: HCT116 cells; test: High-throughput resazurin (Alamar blue) cytotoxicity / antiproliferative assay on tumor HCT116 cells; assay type: cell-based, human; details: for effect on proliferation of HCT116 cells: dose-response curves (Figure S4)
Procedure: A colon adenocarcinoma (HCT116) and normal human lung fibroblast (MRC-5) cell lines were purchased from the American Type Culture Collection (ATCC, Manassas, VA). HCT116 cells were maintained in McCoy's 5a Modified Medium supplemented with 10% FBS, 100 units/ml penicillin, and 100 µg/ml streptomycin at 37°C in a humidified 5% CO2 incubator. Subculturing was done using 1∶5 ratio twice a week. MRC-5 cells were maintained in DMEM supplemented with 10% FBS, 100 units/ml penicillin, and 100 µg/ml streptomycin at 37°C in a humidified 5% CO2 incubator. Subculturing was done using 1∶3 ratio twice a week. A cell bank was established for the cell lines used during the differential toxicity screening campaign.
The high-throughput in vitro assay for measuring toxicity and antiproliferative effects of small molecules was implemented as described earlier. Cell lines were grown in culture flasks to 90% confluences, then harvested in counted cell density and seeded into 384-well microtiter plates. Test compounds were then added in various concentrations (in 2% DMSO final concentration) and incubated with the cells in CO2 incubators at 37°C for 48 h. […] During this period, FBS content of the medium was decreased to avoid the masking effect of FBS on toxicity. Detection of viability is based on the reduction of resazurin (Alamar blue) by living cells, resulting in an increased fluorescent signal. For the transformation of the assay into a high-throughput format, a Beckman Biomek liquid handling system and a Wallac Victor plate reader were used. Protocols needed for handling the 384-well plates were established for both single-concentration screening and dose-response curve determination. A plate map was used for the validation of the assay on 384-well plates, which is suitable for the determination of dose-response curves for 16 compounds at the same time using 6 concentrations in triplicate. This experiment was run in parallel on 5 plates and repeated three times on different days. From the dose-response curves, IC50 values were determined and analyzed. […] Based on the established assay protocol, single-point screenings were done at 50 µM compound concentration in duplicate. Likewise, IC50 values were obtained from the toxicity dose-response curves from six compound concentrations in duplicate and calculated with Microcal Origin 5.0.

[4] = target: amine oxidase flavin-containing B enzyme (MAO-B); parameters: method as in PMID 19933261; details: reported in PubChem; cited from earlier work
[5] = test system: colon HCT116 cell lines; parameters: method as in PMID 19933261; details: cited from earlier work
[6] = test system: HCT116 cell; parameters: method as in PMID 19139018; details: cited from earlier work

SMILES: CN(C)C/C=C/C(=O)Nc1cc2c(Nc3ccc(F)c(Cl)c3)ncnc2cc1O[C@H]1CCOC1 [afatinib]
- IC50 [1]: 1620 nM

SMILES: O=C(CCCCCCC(=O)Nc1ccccc1)NO [SAHA, suberoylanilide hydroxamic acid]
- effect on MRC-5 cells [2]: little or no effect
- effect on proliferation of HCT116 cells [3]: inhibited the proliferation of HCT116 cells in a dose dependent manner

SMILES: O=C1c2ccccc2-c2nc(-c3cccc([N+](=O)[O-])c3)nnc21 [NSC680350]
- IC50 [4]: 80 nM
- pGI50 obtained in this work on HCT116 cell lines [3]: 5.19
- GI50 ([3]; dose-response curve, Figure S5, read-out: GI50 on HCT116 cell lines): 6400 nM
- pGI50 for colon HCT116 cell lines reported in PubChem [5]: 4.64

SMILES: O=C(c1ccc(OCCN2CCCCC2)cc1)c1c(-c2ccc(O)cc2)sc2cc(O)ccc12 [raloxifene]
- inhibition of HCT116 cell growth [6]: inhibit HCT116 cell growth in a dose-dependent manner

SMILES: C=CCNC1=C2C[C@@H](C)C[C@H](OC)[C@H](O)[C@@H](C)/C=C(\C)[C@H](OC(N)=O)[C@@H](OC)/C=C\C=C(/C)C(=O)NC(=CC1=O)C2=O [17AAG, 17-(allylamino)-17-demethoxygeldanamycin]
- effect on MRC-5 cells [2]: little or no effect
- IC50 ([3]; 48 h incubation, dose-response, six concentrations in duplicate): 200 nM
- fold selectivity relative to the antiproliferative effect on MRC-5 cells ([3]; IC50(MRC-5)/IC50(HCT116)): 93 fold
- effect on proliferation of HCT116 cells [3]: inhibited the proliferation of HCT116 cells in a dose dependent manner
